For test [1], the target named is K-ras G12D (GTP) (Homo sapiens, UniProt P01116, G12D). Put plainly: SPR assay (surface plasmon resonance). It is filed as binding. As to conditions: 25° C., 8% DMSO. A digest of the protocol: (§1)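 His-tagged K-ras (GDP- or GTP-bound) captured on Ni-NTA surface (4000 RU); running buffer 10 mM HEPES pH 7.4, 150 mM NaCl, 0.1% Tween-20, 1 mM MgCl2, 8% DMSO; 25° C, 50 μL/min. Compounds injected by Taylor diffusion gradient, buffer blanks double-referenced, kinetic/affinity model fitting.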
(In general: SPR reads the build-up and loss of mass on a sensor chip optically.)

The target of test [2] is K-ras G12D (GDP) (Homo sapiens, UniProt P01116, G12D). In words: SPR assay (surface plasmon resonance). To be noted: 25° C., 8% DMSO. It counts as binding. The method, boiled down: as §1
Test [3] deals with K-Ras wild-type (Homo sapiens, UniProt P01116). In words: G-LISA Ras activation assay, 293H cells transfected with Ras wild-type, EGF-stimulated. It counts as cell-based. As to conditions: 1 hour treatment, 100 ng/ml EGF. The method, boiled down:
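293H cells transfected with WT, G12D or G12V K-Ras plasmid, next day exposed to 3.125–50 μM compound for 1 h. WT-transfected cells then stimulated with 100 ng/ml EGF for 2 min. Cells lysed on ice; active Ras measured by G-LISA.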

The subject of test [4] is Panc10.05 (G12D) cells. Put plainly: 72 hr cell viability (CellTiterBlue). It is filed as cell-based. To be noted: GI50, 72 hr. The method, then: (§2) Viability assays were performed on exemplary compounds and Table 2 below lists exemplary results for selected compounds tested on wild type (Ishikawa) and various K-ras mutants (Panc1-G12D; Panc10.05-G12D; HCT116-G13D).
(§3) Cells are counted and seeded at 1000 cells/36 ul medium/well into 384-well microplates. Cells are returned to 37° C. CO2 incubator for 18 hr. Drug is made as 200× in DMSO and diluted into medium to 10×. To each well is added 4 ul 10× drug, and plates are returned to the incubator. Final assay DMSO concentration is 0.5%. After 72 hr, 8 ul CellTiterBlue (Promega) is added to each well. After 3 hr, fluorescence (Ex550/Em590) is determined on the Victor Plate Reader (Perkin Elmer). Assay range is determined by DMSO control (100% viability) and 100 uM tamoxifen (0% viability). GI50 values are calculated using Graphpad Prism.

Test [5] relates to Panc1 (G12D) cells. In words: 72 hr cell viability (CellTiterBlue). It counts as cell-based. To be noted: GI50, 72 hr. As for the experimental part: as §2, §3
On the technique in general: Alamar Blue is a resazurin reagent that responds to reducing activity.

Test [6] has as its system pMEK and pErk in Panc10.05 (K-Ras G12D mutant) cells. In words: SDS-PAGE/blot detection of pMEK and pErk (FIG. 3). To be noted: serum-starved, 3.1 to 25 μM, 1 hour, then 100 ng/ml EGF 5 minutes. It is filed as cell-based. The method, then:
The effect of contemplated compounds on cell signaling was tested in wild type and K-ras G12D mutant cells as follows: Cancer cell lines BxPC-3 (K-Ras wild-type), and Panc10.05 (K-Ras G12D mutant) were serum-starved 0/N before treatment with 3.1 to 25 μM of Ras compound A0837 for 1 hour before stimulation with 100 ng/ml EGF for 5 minutes. Cells were washed once in ice-cold PBS, lysed in complete lysis buffer on ice, and processed by SDS-PAGE under reducing conditions for the detection of pMEK and pErk. Membranes were stripped and re-probed for total MEK/Erk.

Results on one compound are retold here after patent US10487078B2, “Compositions and methods of targeting mutant K-RAS” (NantBio, Inc., priority 2015, dated 2019).

Read-outs that look alike come from different tables or passages of the source.

Take `Cc1nc(C)c(C(=O)Nc2nc(-c3ccc4[nH]c(=O)[nH]c4c3)cs2)s1` [Compound 4562]: the “SPR Assay G12D (GTP) Kd” value in test [1] is “No binding/fit”. Moreover, in test [2], the equilibrium dissociation constant (Kd) (as a rule, the constant that tells how readily two partners part at equilibrium) came out at 111000 nM. For the same compound, in test [2], the “SPR Assay G12D (GDP) Rmax” value is reported as “Rmax = 66.0 ± 0.9”. Moreover, the IC50 is 0.5 µM in test [3] (Table 1, G-LISA, 293H transfected, read-out: IC50 (μM) Wild-type); 0.5 µM in test [3] (Table 5, IC50, 293H transfected, read-out: G-LISA (wild type)); 2000 nM in test [4]; 6000 nM in test [5]. Moreover, the “Signaling downstream of Ras (pMEK, pErk), mutant cell line (FIG. 3)” value in test [6] is given as “inhibited signaling downstream of Ras in the mutant cell line”.
